Experimental data reported in US20060025394A1, “Estradiol-related compounds and methods of use as anti-tumor agents” (priority 2003, published 2006).

Tests used:
[1] = test system: DU145, PC3, and LNCaP cell lines; test: MTS assay, values averaged or stated over the CaP cell lines; format: cell-based; settings: apoptotic mechanism
Experimental: DU145, LNCaP, PC3, and MCF-7 cells were obtained from the American Type Culture Collection (Manassas, Va.). DU145, PC3, and MCF-7 cells were maintained in Dulbecco's modified Eagle's medium/F-12 supplemented with 5% heat inactivated Fetal Calf Serum and Penicillin/Streptomycin (Invitrogen Life Technologies, Carlsbad, Calif.). LNCaP cells were maintained in RPMI 1640 medium supplemented in the same fashion. Cells were cultured in 75 cm^2 flasks (Falcon, BD Biosciences, Bedford, Mass.) at 37° C. and 5% CO2. For the MTS assay (Example 3), five thousand cells were plated in each well of a 24 well plate (Falcon), were allowed to attach for a 48-hour period in the media described, and changed to a defined medium, (DMEM/F-12 or RPMI1640) supplemented with insulin (BD Biosciences). A 1000× solution of the compound of interest solubilized in DMSO (Sigma, Saint Louis, Mo.) was diluted in the defined media just prior to starting each experiment, and media was refreshed every 48 to 72 hours throughout the experiments.
. Upon completing five days of treatment, the medium in each well was exchanged for 400 μL of an MTS solution (3-(4,5-dimethylthiazol-2-yl)-5-(3-carboxymethoxyphenyl)-2-(4-sulfophenyl)-2H-tetrazolium, inner salt; O'Toole SA, 2003, Cancer Detect Prev., 2003;27(1):47-54) spiked into media as per the manufacture's instructions (Promega, Madison, Wis.) and incubated for 2 hours at 37° C. before reading the absorbance on the μQuant UV/VIS plate reader, in conjunction with KCjunior Software (Bio-Tek Instruments, Winooski, Vt.) set at 490 nm. All experiments were carried out in quadruplicate, control wells were treated with the carrier DMSO. E2, which is estradiol-17β (Steraloids®, Newport, R.I.) and resveratrol (Sigma) were used as controls. […]

[2] = biological target: T1, ER-α (Homo sapiens, UniProt P03372); test: Estrogen receptor relative binding affinity assay, fluorescence polarization, ER-α
T1 construct: purchased Pan Vera, Madison, Wis
T1 sequence (P03372 1-595): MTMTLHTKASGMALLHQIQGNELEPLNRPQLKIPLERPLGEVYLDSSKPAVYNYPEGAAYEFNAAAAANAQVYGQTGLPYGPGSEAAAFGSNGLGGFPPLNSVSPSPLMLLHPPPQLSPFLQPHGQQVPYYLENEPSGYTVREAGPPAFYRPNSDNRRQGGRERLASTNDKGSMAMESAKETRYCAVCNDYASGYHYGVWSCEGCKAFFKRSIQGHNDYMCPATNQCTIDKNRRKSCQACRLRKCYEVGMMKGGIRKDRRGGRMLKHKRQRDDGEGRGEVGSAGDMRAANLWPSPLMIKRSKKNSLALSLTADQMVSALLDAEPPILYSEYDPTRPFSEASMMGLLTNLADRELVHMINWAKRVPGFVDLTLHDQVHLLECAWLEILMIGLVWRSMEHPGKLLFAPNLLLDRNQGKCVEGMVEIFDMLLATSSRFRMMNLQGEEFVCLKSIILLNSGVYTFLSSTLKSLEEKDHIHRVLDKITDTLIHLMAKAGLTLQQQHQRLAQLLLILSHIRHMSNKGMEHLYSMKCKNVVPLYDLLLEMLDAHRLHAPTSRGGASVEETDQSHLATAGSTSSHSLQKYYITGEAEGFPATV
Experimental: All assays were carried out as per the manufacture's instructions with the following modifications.

[3] = test system: DU145 cells; test: Annexin-V-FITC/PI apoptosis assay; format: cell-based; settings: 16 nM, 4th and 5th days
Experimental: Apoptosis was assessed with the annexin-V-FITC apoptosis detection kit (Oncogene Research Products, Boston, Mass.) as per the manufacturer's instructions with E2 and camptothecin (Calbiochem, San Diego, Calif.) as negative and positive controls respectively. Briefly, cells were lifted at the appropriate time points as described above and pelleted. Cells were then resuspended in ice cold binding buffer, and doubly stained with Annexin-V-fluorescein isothiocyanate and propidium iodide (PI) and analyzed within two hours on the FACScan™ flow cytometer (Becton Dickinson) and the Cell Cycle Multi-Cycle system (Phoenix Flow System).

[4] = test system: MCF-7; test: Cytotoxicity testing (Example 7), MTS, MCF-7; format: cell-based; settings: Table 3, five days, 1 mM of each compound, defined media
Experimental: Cytotoxicity Studies were done in DU-145 and MCF-7 Cells. […] We set out to test the efficacy of these compounds based on known affinities for ER-α previously reported. Cells were treated for five days with 1 mM of each compound in a defined media. Cell number was estimated by the MTS method. Similar studies were carried out in the MCF-7 cell line known to express both ER-α and -β, and display proliferative properties in the presence of classic estrogens.

In the case of `C[C@]12CC[C@@H]3c4ccc(O)cc4CC[C@H]3[C@@H]1CC[C@@]2(O)/C=C\c1ccc(N)cc1` [APVE2, 17α-20Z-21-[(4-amino)phenyl]-19-norpregna-1,3,5(10),20-tetraene-3,17β-diol], the “level of cell death” value [1] is reported as greater than 90%, the EC50 ([2]; fluorescence polarization, 25° C., 2 hours) is reported as 365 nM and the “ER-α % RBA” value ([2]; ratio of EC50 values as compared to E2) is reported as 0.87%. For the same molecule, the “cells staining heavily with both dyes (late stage apoptosis)” value [3] was “approximately 76%” and the “MCF-7 % Cell#” value [4] was 25%.
